From ChEMBL document CHEMBL4813944 (Eur J Med Chem, 2021)
The source made the active and inactive calls. The calls are words filed in the database; no cut-off is given here.

Tests used:
[1] = Cytotoxicity against human SH-SY5Y cells assessed as cell viability at 10 uM measured after 24 hrs by calcein-AM staining based fluorescence analysis; details: read-out: Activity
[2] = Cytotoxicity against human SH-SY5Y cells assessed as cell viability at 1 uM measured after 24 hrs by calcein-AM staining based fluorescence analysis; details: read-out: Activity
[3] = Cytotoxicity against human SH-SY5Y cells assessed as cell viability at 0.1 uM measured after 24 hrs by calcein-AM staining based fluorescence analysis; details: read-out: Activity
SH-SY5Y [4] = assay: Neuroprotective activity against salsolinol-induced neurotoxicity in human SH-SY5Y cells assessed as cell death at 0.5 uM measured after 24 hrs by PI staining based analysis (reference value: 100%); assay type: functional
SH-SY5Y [5] = assay: Neuroprotective activity against salsolinol-induced neurotoxicity in human SH-SY5Y cells assessed as cell viability at 0.5 uM measured after 24 hrs by calcein-AM staining based fluorescence analysis (reference value: 70.49 +/-0.51%); assay type: functional; details: read-out: Activity
SH-SY5Y [6] = assay: Inhibition of glutamate-induced apoptosis in human SH-SY5Y cells assessed as caspase 3/7 activity at 0.5 uM incubated for 1 hr using Ac-DEVD-AMC as substrate by fluorescence analysis (reference value: 100%); assay type: functional; design: scale not given: the % may be the effect or the level left
[7] = Inhibition of salsolinol-induced mPTP opening in human SH-SY5Y cells assessed as fold change in fluorescence intensity at 0.5 uM measured after 24 hrs by calcein AM/CoCl2 based fluorescence microscopic analysis (reference value: 0.49 +/-0.02); assay type: functional
SH-SY5Y [8] = assay: Neuroprotective activity against salsolinol-induced neurotoxicity in human SH-SY5Y cells assessed as reduction in cell death at 0.1 to 10 uM measured after 24 hrs by PI staining based analysis; assay type: functional; details: dose 0.1-10 µM
SH-SY5Y [9] = assay: Neuroprotective activity against salsolinol-induced neurotoxicity in human SH-SY5Y cells assessed as cell viability at 1 uM measured after 24 hrs by calcein-AM staining based fluorescence analysis (reference value: 70.49 +/-0.51%); assay type: functional; details: read-out: Activity

SMILES	viability at 24 h, 10 µM [1] [%]	viability at 24 h, 1 µM [2] [%]	viability at 24 h, 0.1 µM [3] [%]	Activity (SH-SY5Y [4]) [%]	viability at 0.5 µM (SH-SY5Y [5]) [%]	Activity (SH-SY5Y [6]) [%]	fold change (FC) [7]	Activity (SH-SY5Y [8])	viability at 1 µM (SH-SY5Y [9]) [%]
C=C(C(=O)O)[C@@H]1CC[C@]2(COC(C)=O)CC[C@]3(C)[C@H](CC[C@@H]4[C@@]5(C)CC[C@H](OC(C)=O)C(C)(C)[C@@H]5CC[C@]43C)[C@@H]12	11.6	102	102	–	–	–	–	–	–
C/C=C/C[C@@H](C)[C@@H](O)[C@H]1C(=O)N[C@@H](CC)C(=O)N(C)CC(=O)N(C)[C@@H](CC(C)C)C(=O)N[C@@H](C(C)C)C(=O)N(C)[C@@H](CC(C)C)C(=O)N[C@@H](C)C(=O)N[C@H](C)C(=O)N(C)[C@@H](CC(C)C)C(=O)N(C)[C@@H](CC(C)C)C(=O)N(C)[C@@H](C(C)C)C(=O)N1C [CYCLOSPORINE]	–	–	–	74.5	99.3	89.1	0.67	–	–
C=C(Cn1cc(-c2cccnc2)nn1)[C@@H]1CC[C@]2(C(=O)O)CC[C@]3(C)[C@H](CC[C@@H]4[C@@]5(C)CC[C@H](O)C(C)(C)[C@@H]5CC[C@]43C)[C@@H]12	133	116	103	–	–	–	–	inactive	81.7
CC(=O)OC[C@H]1O[C@@H](n2cc(CO)nn2)[C@H](OC(C)=O)[C@@H](OC(C)=O)[C@H]1OC(C)=O	100	107	109	–	–	–	–	–	–
COC(=O)[C@]12CCC(C)(C)C[C@@H]1[C@H]1C=C[C@@H]3[C@@]4(C)CC(SC#N)C(=O)C(C)(C)[C@@H]4CC[C@@]3(C)[C@]1(C)CC2 (stereo partly specified)	99.2	107	100	–	–	–	–	–	–
C=C(C)[C@@H]1CC[C@]2(C(=O)O)CC[C@]3(C)[C@H](C=C[C@@H]4[C@@]5(C)Cc6sc(N7CCOCC7)nc6C(C)(C)[C@@H]5CC[C@]43C)[C@@H]12	87	90	91.3	–	–	–	–	–	–
